From PubChem BioAssay (NCI) come the findings set out here.

Common to all, as to assay: NCI tumour cell line growth inhibition, 48 h
The subject of assay [1] is OVCAR-5 ovarian.
Assay [2] concerns SR leukemia.
The test system of assay [3] is IGROV1 ovarian.
Assay [4] concerns PC-3 prostate.
Assay [5] has as its system M14 melanoma.
Assay [6] has as its system SF-295 CNS.
For assay [7], the system named is TK-10 renal.
Assay [8] concerns MOLT-4 leukemia.
The test system of assay [9] is OVCAR-4 ovarian.
The test system of assay [10] is NCI/ADR-RES ovarian.

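These data come from cells grown in 96-well plates and exposed to compound for 48 hours at five concentrations. The concentration for 50% growth inhibition is given as GI50. TGI marks complete inhibition of growth.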

On to `COc1cc(C(=O)/C=C/c2c(C(F)(F)F)nc3ccccn23)cc(OC)c1OC`, for which the GI50 in assay [1] was 1.98 µM; in assay [2] it was 1.98 µM; in assay [3] it was 2.23 µM; in assay [4], 3.8 µM; in assay [5], 1.82 µM; in [6], 1.99 µM. For the same molecule, the GI50 in [7] was 2.09 µM; in assay [8], 3.73 µM; in assay [9], 4.1 µM; in assay [10], 1.41 µM. Besides, the TGI in assay [1] was 4.02 µM; in [2] it was over 100 µM; in assay [3], 6.02 µM; in assay [4], 32.8 µM; in assay [5], 4.06 µM; in [6], 3.92 µM. Besides, the TGI in [7] was 4.33 µM; in assay [8], over 100 µM; in assay [9], over 100 µM; in assay [10] it was 21.8 µM.
For the molecule `Nc1nc(C(=O)O)c(N=Nc2ccccc2)c(=O)[nH]1`, the TGI in assay [1], in [2], in assay [3], in assay [4], in assay [5] and in [6] was over 100 µM each time. Also, the TGI in assay [7], in assay [8], in assay [9] and in [10] was over 100 µM in each case.
With `O=C1/C(=C/c2ccccc2[N+](=O)[O-])COc2ccc(O)cc21`, the GI50 was 1.73 µM in assay [1]; 0.366 µM in [2]; 0.529 µM in assay [3]; 2.01 µM in assay [4]; 1.9 µM in assay [5]; 7.13 µM in assay [6]. Besides, the GI50 in assay [7] is 3.44 µM; in assay [8], 2.27 µM; in [9] it was 1.9 µM; in assay [10] it was 1.99 µM. Further, the TGI in assay [1] was 3.64 µM; in [2] it was over 100 µM; in assay [3] it was 2.08 µM; in assay [4], 10.8 µM; in assay [5] it was 4.85 µM; in [6], 25.6 µM. In addition, the TGI in assay [7] was 13.9 µM; in assay [8], 8.23 µM; in assay [9], 8.63 µM; in assay [10], 8.09 µM.
Regarding `CCOC(=O)C(Cc1ccc(N(CCCl)CCCl)cc1)NC(=O)C(Cc1ccccc1)NC(C)=O` (stereo not given), the TGI in [1] is over 0.435 µM; in assay [2] it was over 1 µM; in assay [3], over 0.308 µM; in assay [4] it was over 0.374 µM; in [5], over 0.318 µM; in assay [6], over 0.501 µM. Also, the TGI is over 0.325 µM in [7], 0.201 µM in assay [8], 0.0353 µM in assay [9] and over 0.618 µM in [10].
For the molecule `COc1cc2c(cc1NC(=O)C(Cl)Cl)-c1ccc(NC(=O)C(Cl)Cl)cc1C2`, the GI50 in assay [1] is 1.77 µM; in assay [2], 5.27 µM; in assay [3], 1.16 µM; in assay [4], 0.606 µM; in assay [5] it was 3.14 µM; in [6], 0.371 µM. In addition, the GI50 in assay [7] was 0.687 µM; in assay [8], 11.9 µM; in assay [9], 1.04 µM; in [10], 0.789 µM. Further, the TGI in assay [1] stood at 4.75 µM; in assay [2], 24.2 µM; in [3] it was 5.58 µM; in [4] it was 1.76 µM; in [5] it was 16.5 µM; in assay [6], 1.12 µM. For the same molecule, the TGI in assay [7] was 2.53 µM; in assay [8], over 89.6 µM; in assay [9], 5.56 µM; in assay [10] it was 4.42 µM.
As to `COC1=C(OC)[C@]2(OC)c3c(O)c(OC)c4c(c3O[C@@]23O[C@@H](c2ccccc2)CC=C3C1=O)[C@@H](OC)C[C@H](c1ccccc1)O4`, the GI50 is 1.5 µM in assay [1]; 0.0317 µM in [2]; 0.374 µM in assay [3]; 0.706 µM in assay [4]; 0.516 µM in assay [5]; 1.56 µM in assay [6]. Moreover, the GI50 in assay [7] was 0.821 µM; in assay [8], 0.0401 µM; in [9], 0.667 µM; in [10], 0.607 µM. Further, the TGI in assay [1] is 2.93 µM; in [2], 0.133 µM; in assay [3], 1.41 µM; in [4] it was 1.84 µM; in assay [5], 1.86 µM; in assay [6], 2.97 µM. For the same molecule, the TGI in assay [7] is 1.93 µM; in assay [8], 0.194 µM; in [9], 2.15 µM; in assay [10], 3.74 µM.
Turning to `Cc1cc(O)c2c3c(ccc2c1)C(=O)c1c(O)cccc1C3=O`, the TGI in [1] is over 100 µM; in [2] it was 26.5 µM; in assay [3], over 20.3 µM; in assay [4], over 100 µM; in assay [5], over 26.2 µM; in assay [6] it was over 100 µM. In addition, the TGI in [7] is over 100 µM; in assay [8], over 39.1 µM; in assay [9], 29.8 µM; in assay [10] it was over 100 µM.
As to `N#C/C(=C\c1cc2ccc(N3CCC3)cc2oc1=O)C(=O)N(CC(=O)O)CC(=O)O`, the GI50 in [1], in assay [2], in assay [3], in assay [4], in [5] and in assay [6] was over 100 µM each time. The GI50 in assay [7], in assay [8], in assay [9] and in assay [10] was over 100 µM each time. For the same molecule, the TGI in [1], in [2], in assay [3], in assay [4], in assay [5] and in assay [6] was over 100 µM in each case. Moreover, the TGI in [7], in assay [8], in assay [9] and in assay [10] was over 100 µM each time.
With `c1ccc(C2CCCCC2)c(OCCCCCN2CCNCC2)c1`, the GI50 is 3.46 µM in assay [1]; 0.995 µM in assay [2]; 2.77 µM in assay [3]; 3.19 µM in [4]; 1.86 µM in assay [5]; 2.36 µM in assay [6]. The GI50 in [7] is 5.67 µM; in assay [8], 1.63 µM; in [9] it was 4.01 µM; in assay [10] it was 7.07 µM. Besides, the TGI was found to be 13 µM in assay [1]; 4.56 µM in assay [2]; 12.6 µM in assay [3]; 18.4 µM in [4]; 3.89 µM in assay [5]; 6.04 µM in assay [6]. Further, the TGI in [7] was 19.3 µM; in [8] it was 5.07 µM; in assay [9] it was 17 µM; in assay [10] it was 29.2 µM.
